# According to patent US8399515B2, “Five and fifteen carbon fatty acids for treating metabolic disorders and as nutritional supplements” (Baylor Research Institute, priority 2003, dated 2013):
# Where “and” joins values, the source holds several entries; their conditions need not be identical. Equal values may be shown once.
# Key:
# [1] = test system: fibroblasts from patients with VLCAD deficiency, non-cardiac milder phenotype; test: Propionylcarnitine from oxidation of odd-carbon fatty acids in VLCAD (non-cardiac) fibroblasts; format: cell-based, human
# Experimental: (§1) Fibroblasts obtained from patients with inherited defects of mitochondrial fat oxidation were cultured in the presence of omega deuterated odd-carbon numbered fatty acids, as described in Roe, C. R., Sweetman, L., Roe, D. S., David, F., Brunengraber, H., “Effective Dietary Treatment of Cardiomyopathy & Rhabdomyolysis in Long-Chain Fat Oxidation Disorders using an Anaplerotic Odd-Chain Triglyceride,” J. Clin. Invest. 110 (2): 259-269 (2002).
# (§2) The data in Table 1 represents testing of cultured fibroblasts derived from ten patients afflicted with Very-long-chain acyl-CoA dehydrogenase (VLCAD) deficiency (six patients with the severe cardiac form and four with the non-cardiac milder phenotype), two patients with Mitochondrial Trifunctional Protein (MTP) deficiency, five patients having L-3-hydroxy-acyl-CoA dehydrogenase (LCHAD) deficiency and three patients with Short-chain acyl-CoA dehydrogenase (SCAD) deficiency.
# [2] = test system: fibroblasts from patients with L-3-hydroxy-acyl-CoA dehydrogenase (LCHAD) deficiency; test: Propionylcarnitine from oxidation of odd-carbon fatty acids in LCHAD fibroblasts; format: cell-based, human
# Experimental: as §1, §2
# [3] = test system: control / normal fibroblasts; test: Fate of odd-carbon fatty acids in control (normal) fibroblasts; format: cell-based, human; conditions: NORMAL fibroblasts
# Experimental: Fibroblasts obtained from patients with inherited defects of mitochondrial fat oxidation were cultured in the presence of omega deuterated odd-carbon numbered fatty acids, as described in Roe, C. R., Sweetman, L., Roe, D. S., David, F., Brunengraber, H., “Effective Dietary Treatment of Cardiomyopathy & Rhabdomyolysis in Long-Chain Fat Oxidation Disorders using an Anaplerotic Odd-Chain Triglyceride,” J. Clin. Invest. 110 (2): 259-269 (2002). […]
# [4] = test system: fibroblasts from patients with inherited defects of mitochondrial fat oxidation; test: Propionylcarnitine production in all fat-oxidation-defective fibroblast cell lines (comparison in words); format: cell-based, human; conditions: all VLCAD, MTP, LCHAD, SCAD cell lines; C5 versus C7; C15 versus C5 or C7
# Experimental: as §1, §2
# [5] = test system: fibroblasts from patients with Mitochondrial Trifunctional Protein (MTP) deficiency; test: Propionylcarnitine from oxidation of odd-carbon fatty acids in MTP fibroblasts; format: cell-based, human
# Experimental: as §1, §2
# [6] = test system: fibroblasts from patients with Short-chain acyl-CoA dehydrogenase (SCAD) deficiency; test: Propionylcarnitine from oxidation of odd-carbon fatty acids in SCAD fibroblasts; format: cell-based, human
# Experimental: as §1, §2
# [7] = test system: fibroblasts from patients with Very-long-chain acyl-CoA dehydrogenase (VLCAD) deficiency, severe cardiac form; test: Propionylcarnitine from oxidation of odd-carbon fatty acids in VLCAD (cardiac) fibroblasts; format: cell-based, human
# Experimental: as §1, §2
# [8] = test system: SCAD patient; test: Meal test with triheptanoin or tripentanoin in a SCAD patient; format: in vivo, human
# Excerpt: (§3) A VLCAD patient and an SCAD patient, both of whom had gastrostomy sites for enteral administration, each were provided with separate meals containing equimolar amounts of triheptanoin (C7) and tripentanoin (C5) at different times on the same day. Each patient was given the amount in 1 of 4 daily meals equivalent to a diet of 3 gms/Kg/day or about 30% of total Kcal as the triglyceride. Serial blood samples were obtained hourly and individual urines were collected at baseline and during the meal.
# (§4) The patient with VLCAD (FIG. 3) was monitored over a 3 hour interval and the SCAD patient was monitored for 4 hours after beginning the meal. […] One way the VLCAD patient was monitored was for myristenoylcamitine (cis-5-C14:1), which reflects oxidation of oleate and is therefore an indication of ongoing lipolysis during the meal tests (it is not derived from either C7 or C5). […] These changes are not observed with even-carbon triglycerides.
# The second patient with SCAD deficiency (FIG. 4) had been receiving the triheptanoin diet for more than 2 years. This disorder is due to an inherited deficiency of butyryl-CoA dehydrogenase (SCAD) and is known to oxidize even carbon fatty acids of 4-6 carbon chain length.
# In FIG. 4, C7-C3 represents the blood levels of C3 derived from C7; and C5-C3 represents the blood levels of C3 derived from C5, C7-C5 represents blood levels of pentanoylcarnitine (C5) derived from C7 meals and C5-C5 represents blood levels of pentanoylcarnitine (C5) derived from C5 meals. […] C7-C4 and C5-C4 represent the levels of the disease-specific acylcarnitine (butyrylcarnitine [C4]) observed in SCAD deficiency. […] This increased quantity of C3 corresponds to those observed for SCAD deficiency in the fibroblast studies above shown in Table 1.
# [9] = test system: VLCAD patient; test: Meal test with triheptanoin or tripentanoin in a VLCAD patient; format: in vivo, human; design: Myristenoylcarnitine Level: unit not given here; conditions: for Myristenoylcarnitine Level / Propionylcarnitine Level: blood
# Excerpt: as §3, §4
# [10] = test system: MCAD-deficient fibroblasts; test: Fate of odd-carbon fatty acids in MCAD-deficient fibroblasts; format: cell-based, human
# Experimental: as §1
# Fibroblasts from four patients with MCAD deficiency and one heterozygote (carrier) indicate that odd-carbon fatty acids containing more than seven carbons can not be effectively used in that disease. […]
# [11] = VLCAD non-cardiac fibroblasts, one line per patient
# [12] = average over VLCAD non-cardiac cell lines
# [13] = LCHAD fibroblasts, one line per patient
# [14] = MTP fibroblasts, one line per patient
# [15] = SCAD fibroblasts, one line per patient
# [16] = VLCAD cardiac fibroblasts, one line per patient
# [17] = average over VLCAD cardiac cell lines
compound,measurement,setting,value
"CCCCC(=O)O [C5, n-pentanoic acid]",Ratio: C5/C7 (propionylcarnitine),[1]; [11],2.0 and 1.4 (2×) and 2.1
same,Ratio: C5/C15 (propionylcarnitine),[1]; [11],2.7 and 1.5 and 1.4 and 1.7
same,Propionylcarnitine from oxidation of fatty acid,"[1]; VLCAD non-cardiac fibroblasts, one line per patient, 72 hours incubation",44.4 nmol/mg Protein/72 hours and 28.3 nmol/mg Protein/72 hours and 51.8 nmol/mg Protein/72 hours and 19.7 nmol/mg Protein/72 hours
same,AVG. Ratio: C5/C7,[1]; [12],AVG. 1.7
same,AVG. Ratio: C5/C15,[1]; [12],AVG. 1.8
same,Ratio: C5/C7 (propionylcarnitine),[2]; [13],1.2 and 1.5 (2×) and 2.3 and 1.6
same,Ratio: C5/C15 (propionylcarnitine),[2]; [13],1.9 and 2.3 and 2.2 and 3.5 and 2.6
same,Propionylcarnitine from oxidation of fatty acid,"[2]; LCHAD fibroblasts, one line per patient, 72 hours incubation",65.4 nmol/mg Protein/72 hours and 34.5 nmol/mg Protein/72 hours and 35.0 nmol/mg Protein/72 hours and 24.4 nmol/mg Protein/72 hours and 36.8 nmol/mg Protein/72 hours
same,AVG. Ratio: C5/C7,[2]; average over LCHAD cell lines,AVG. 1.6
same,AVG. Ratio: C5/C15,[2]; average over LCHAD cell lines,AVG. 2.5
same,Propionylcarnitine from odd carbon precursor,[3],25.8 nmol/mg Protein/72 hours
same,"Quantity of propionylcarnitine produced, compared with the other odd-carbon fatty acids",[4],consistently greater quantities of propionylcarnitine
same,Ratio: C5/C7 (propionylcarnitine),[5]; [14],1.6 and 1.3
same,Ratio: C5/C15 (propionylcarnitine),[5]; [14],1.2 and 1.4
same,Propionylcarnitine from oxidation of fatty acid,"[5]; MTP fibroblasts, one line per patient, 72 hours incubation",38.3 nmol/mg Protein/72 hours and 63.6 nmol/mg Protein/72 hours
same,AVG. Ratio: C5/C7,[5]; average over MTP cell lines,AVG. 1.5
same,AVG. Ratio: C5/C15,[5]; average over MTP cell lines,AVG. 1.3
same,Ratio: C5/C7 (propionylcarnitine),[6]; [15],1.4 (2×) and 1.2
same,Ratio: C5/C15 (propionylcarnitine),[6]; [15],1.4 (2×) and 1.3
same,Propionylcarnitine from oxidation of fatty acid,"[6]; SCAD fibroblasts, one line per patient, 72 hours incubation",80.2 nmol/mg Protein/72 hours and 43.6 nmol/mg Protein/72 hours and 48.2 nmol/mg Protein/72 hours
same,AVG. Ratio: C5/C7,[6]; average over SCAD cell lines,AVG. 1.3
same,AVG. Ratio: C5/C15,[6]; average over SCAD cell lines,AVG. 1.4
same,Ratio: C5/C7 (propionylcarnitine),[7]; [16],1.6 (2×) and 2.1 and 1.5 and 1.7 and 2.0
same,Ratio: C5/C15 (propionylcarnitine),[7]; [16],4.0 and 5.2 and 3.1 and 3.5 and 5.3 and 5.1
same,Propionylcarnitine from oxidation of fatty acid,"[7]; VLCAD cardiac fibroblasts, one line per patient, 72 hours incubation",47.0 nmol/mg Protein/72 hours and 27.2 nmol/mg Protein/72 hours and 67.8 nmol/mg Protein/72 hours and 28.2 nmol/mg Protein/72 hours and 34.7 nmol/mg Protein/72 hours and 50.6 nmol/mg Protein/72 hours
same,AVG. Ratio: C5/C7,[7]; [17],AVG. 1.8
same,AVG. Ratio: C5/C15,[7]; [17],AVG. 4.4
same,"Amount of C3 produced following the meal, C5 compared with C7",[8],significantly greater
same,Limitation in oxidation of the meal triglyceride,[8],no limitation in oxidation
same,Change in C4 (butyrylcarnitine) during the meal,[8]; C4 already at very low levels,no significant decrease in C4
same,Clinical or biochemical toxicity,"[8]; meal test, 4 hours",no clinical or biochemical toxicity
same,Relative Blood Levels of Fatty Acid Chain Lengths: C3,[8]; time 0 hours,2.61
same,Relative Blood Levels of Fatty Acid Chain Lengths: C4 (butyrylcarnitine),[8]; time 0 hours,0.30
same,Relative Blood Levels of Fatty Acid Chain Lengths: C3,[8]; time 1 hours,2.78
same,Relative Blood Levels of Fatty Acid Chain Lengths: C4 (butyrylcarnitine),[8]; time 1 hours,0.26
same,Relative Blood Levels of Fatty Acid Chain Lengths: C3,[8]; time 2 hours,3.19
same,Relative Blood Levels of Fatty Acid Chain Lengths: C4 (butyrylcarnitine),[8]; time 2 hours,0.27
same,Relative Blood Levels of Fatty Acid Chain Lengths: C3,[8]; time 3 hours,3.73
same,Relative Blood Levels of Fatty Acid Chain Lengths: C4 (butyrylcarnitine),[8]; time 3 hours,0.30
same,Relative Blood Levels of Fatty Acid Chain Lengths: C3,[8]; time 4 hours,4.99
same,Relative Blood Levels of Fatty Acid Chain Lengths: C4 (butyrylcarnitine),[8]; time 4 hours,0.27
same,Myristenoylcarnitine Level,"[9]; time 0 hours, cis-5-C14:1, marker of lipolysis",3.07
same,Propionylcarnitine Level,"[9]; time 0 hours, enteral meal via gastrostomy",1.38
same,Myristenoylcarnitine Level,[9]; time 1 hours,2.89
same,Propionylcarnitine Level,[9]; time 1 hours,3.15
same,Myristenoylcarnitine Level,[9]; time 2 hours,2.04
same,Propionylcarnitine Level,[9]; time 2 hours,3.51
same,Myristenoylcarnitine Level,[9]; time 3 hours,3.39
same,Propionylcarnitine Level,[9]; time 3 hours,5.63
same,Clinical or biochemical toxicity,"[9]; meal test, 3 hour interval",no clinical or biochemical toxicity
same,Propionyl-CoA produced in culture (in words),"[10]; MCAD 1 and MCAD 2 cell lines, compared with normal",normal or greater than normal
same,Propionylcarnitine from odd carbon precursor,[10]; MCAD-1 fibroblast cell line,25.8 nmol/mg Protein/72 hours
same,Propionylcarnitine from odd carbon precursor,[10]; MCAD-2 fibroblast cell line,58.5 nmol/mg Protein/72 hours
